Measured values: patent US20030207843A1, “Treatment of drug-resistant human immunodeficiency virus infection” (priority 1999, published 2003)
Where two headings read alike, the source gives them in different places.

How the values were obtained:
HIV-1LAI M184V = experiment: p24 reduction assay in MT-2 cells, M184V; assay type: cell-based; conditions: for EC50: M184V; for Fold-resistance: M184V relative to wild type virus
Description: (§1) Cells. MT-2 cells (AIDS Research and Reference Reagent Program, National Institute of Allergy and Infectious Diseases, National Institutes of Health) were maintained in RPMI 1640 supplemented with 10% fetal bovine serum (FBS; JRH Biosciences, Lenexa, Kans.), 10 mM HEPES buffer, 50 IU/ml penicillin and 50 μg/ml streptomycin.
(§2) Antiviral Susceptibility Assays. The antiviral activity of each compound was determined by inoculating MT-2 cells with HIV-1LAI at a multiplicity of infection (MOI) of 0.01 TCID50/cell, followed by incubation in the presence of three-fold serial drug dilutions (3 wells per dilution) (see Mellors, et. al., Antimicrob. Agents Chemother. 39:1087-1092). Five or seven days after infection, culture supernatants were harvested, lysed with 0.5% triton-X 100 and assayed for p24 antigen concentration using a commercial ELISA assay (DuPont, NEN Products, Wilmington, Del.). The antiviral activity of the compounds is expressed as the IC50, which is the concentration required to inhibit 50% of p24 antigen production. The fold-resistance of a test virus is calculated by dividing the IC50 of the test virus by the IC50 of the HIV-1LAI control virus.
(§3) Generation of Mutant Recombinant HIV-1. HIV-1 containing the desired mutations were generated by oligonucleotide directed mutagenesis (Altered Sites II, Promega) as previously described (Mellors, et. al., Molecular Pharm. 41:446-451). After mutagenesis, mutant RT was subcloned into the pxxHIV-1LAI cloning vector using the silent XmaI and XbaI restriction sites located at the 5′ and 3′ ends of RT. Clones were DNA sequenced to verify the presence of the desired mutation(s) and electroporated into MT-2 cells as described above to generate infectious mutant recombinant HIV-1.
(§4) Mutant RT was generated via oligonucleotide-directed mutagenesis and ligated into the pXXHIV-1LAI cloning vector. Cloning was facilitated by the presence of two silent restriction sites at the 5′ and 3′ ends (Xma1 and Xba1, respectively) of pXXHIV-1LAI RT. Infectious mutant recombinant HIV-1 was generated by electroporating MT-2 cells with mutated pXXHIV-1LAI clones. The presence of the desired mutations was verified by DNA sequencing.
(§5) The multi-drug resistant HIV-1 strains, 11163p1 and 11588p1, are human clinical isolates having the RT mutations indicated. HIV-1 strains treated with the lipid analogs of the present invention include wild type, e.g., xxLAI, and the like, single mutation, e.g., xxLAI MI 84V (resistant to 3TC), xxLAI L74V (resistant to ddI and ddC), xxLAI K65R (resistant to ddI, ddC, DAPD, DXG, tenofovir, and adefovir), xxLAI T215Y (resistant to AZT), and the like, double mutations, e.g., xxLAI M41 L/T215Y (resistant to AZT), xxLAI MI 84V/T215Y (resistant to 3TC and AZT), and the like, and multiple mutations, e.g., xxLAI 4XAZT ((D67N, K70R, T215Y, K219Q) resistant to AZT)), xxLAI 4XAZT/M184V ((D67N, K70R, M 184V, T215Y, K219Q) resistant to AZT and 3TC), xxLAI M5456-12 (AZT+NNRTI resistant: D67N, K70R, K103N, T215Y), xxLAI G2-3g (AZT/3TC co-resistant: M41L, D67N, M184V, H208Y, L210W, R211K, L214F, T215Y, 1293V, E297A), 11163 (multinucleoside resistant virsus: M41L, A62V, V751, F77L, K103N, F116Y, Q151M, Y181C, M184V), 11588 (multinucleoside resistant virsus: A62V, K65R, K70R, V751, F77L, F116Y, Q151M, M184V, K219Q), and the like.

[1] = system: HIV-1LAI 4XAZT (D67N, K70R, T215Y, K219Q); experiment: p24 reduction assay in MT-2 cells, 4XAZT; assay type: cell-based
Description: as §1, §2, §3, §4, §5

HIV-1LAI 4XAZT/K103N = experiment: p24 reduction assay in MT-2 cells, 4XAZT/K103N; assay type: cell-based; conditions: for Fold-resistance: 4XAZT/K103N relative to wild type virus
Description: as §1, §2, §3, §4, §5

[2] = system: multidrug-resistant HIV-1 clinical isolate 11588p1; experiment: p24 reduction assay in MT-2 cells, 11588p1; assay type: cell-based
Description: as §1
as §2, with “[…],” for “was determined by inoculating MT-2 cells with HIV-1LAI at a multiplicity of infection (MOI) of 0.01 TCID50/cell,”
as §5

NL4-3 (wild type virus) = experiment: p24 reduction assay in MT-2 cells, NL4-3; assay type: cell-based, HIV-1
HIV-1LAI W88S = experiment: p24 reduction assay in MT-2 cells, W88S; assay type: cell-based; conditions: Table 7; for EC50: W88S; for Fold-resistance: W88S relative to wild type virus
Description: as §1, §2, §3, §4
(§6) Invention compounds were also evaluated against a panel of HIV-1LAI derived recombinants resistant to PFA and the PFA invention compounds, as shown in Table 7.

HIV-1LAI E89G = experiment: p24 reduction assay in MT-2 cells, E89G; assay type: cell-based; conditions: Table 7; for EC50: E89G; for Fold-resistance: E89G relative to wild type virus
Description: as §1, §2, §3, §4, §6

HIV-1LAI E89K = experiment: p24 reduction assay in MT-2 cells, E89K; assay type: cell-based; conditions: Table 7; for EC50: E89K; for Fold-resistance: E89K relative to wild type virus
Description: as §1, §2, §3, §4, §6

[3] = system: HIV-1LAI 4XAZT/Q161L/H208Y; experiment: p24 reduction assay in MT-2 cells, 4XAZT/Q161L/H208Y; assay type: cell-based; conditions: Table 7; for EC50: 4XAZTQ161L/H208Y; for Fold-resistance: 4XAZTQ161L/H208Y relative to wild type virus
Description: as §1, §2, §3, §4, §6

[4] = Table 5, 4XAZT relative to wild type virus
[5] = Table 7, 4XAZT relative to wild type virus
[6] = Human immunodeficiency virus 1, MT2
[7] = Table 1, 4xAZT, MOI 0.01, read-out: EC50
[8] = Table 5, 4XAZT, mean ± SD, read-out: EC50
[9] = Table 1, AZT/K103N, MOI 0.01, read-out: EC50
[10] = Table 5, 4XAZT/K103N, mean ± SD, read-out: EC50

Structure (SMILES) | Fold-resistance (HIV-1LAI M184V; Table 3) | Fold-resistance [1, 4] | Fold-resistance [1, 5] | Fold-resistance (HIV-1LAI 4XAZT/K103N; Table 5) | Fold-resistance (HIV-1LAI E89K) | Fold-resistance [3] | EC50 (HIV-1LAI M184V; Table 1, MOI 0.01) | EC50 (HIV-1LAI M184V; Table 3, mean ± SD) | EC50 [1, 7] | EC50 [1, 8] | EC50 ([1]; Table 7, 4XAZT, read-out: EC50) | EC50 (HIV-1LAI 4XAZT/K103N; [9]) | EC50 (HIV-1LAI 4XAZT/K103N; [10]) | EC50 ([2]; Table 2, MOI 0.05) | EC50 (NL4-3 (wild type virus); Table 4, mean ± SD) | EC50 (HIV-1LAI W88S) | Fold-resistance (HIV-1LAI W88S) | EC50 (HIV-1LAI E89G) | Fold-resistance (HIV-1LAI E89G) | EC50 (HIV-1LAI E89K) | also measured
O=C(O)P(=O)(O)O [PFA, phosphonoformate, reference compound] | (1.7) | (0.7) | 8.07 (0.7) | (1.1) | 46.24 (6.9) | 17.50 (2.4) | – | – | – | – | – | – | – | – | – | – | – | – | – | – | EC50 (HIV-1LAI M184V; Human immunodeficiency virus 1, MT2, Table 1, MOI 0.01): 15700 nM; EC50 (HIV-1LAI M184V; Human immunodeficiency virus 1, MT2, Table 3, mean ± SD): 33400 ± 18700 nM; EC50 ([1]; Human immunodeficiency virus 1, MT2, Table 1, 4xAZT, MOI 0.01, read-out: EC50): 8820 nM; EC50 ([1]; Human immunodeficiency virus 1, MT2, Table 5, 4XAZT, mean ± SD, read-out: EC50): 12700 ± 8070 nM; EC50 ([1]; Human immunodeficiency virus 1, MT2, Table 7, 4XAZT, read-out: EC50): 12700 nM; EC50 (HIV-1LAI 4XAZT/K103N; Human immunodeficiency virus 1, MT2, Table 1, AZT/K103N, MOI 0.01): 18600 nM; EC50 (HIV-1LAI 4XAZT/K103N; Human immunodeficiency virus 1, MT2, Table 5, 4XAZT/K103N, mean ± SD, read-out: EC50): 19200 ± 8850 nM; EC50 ([2]; Human immunodeficiency virus 1, MT2, Table 2, MOI 0.05): 23500 nM; EC50 (NL4-3 (wild type virus); Human immunodeficiency virus 1, NL43, MT2, Table 4, mean ± SD): 15100 ± 6100 nM; EC50 (HIV-1LAI W88S; [6]): 67100 nM; EC50 (HIV-1LAI E89G; [6]): 241000 nM; EC50 (HIV-1LAI E89K; [6]): 90200 nM; EC50 [3, 6]: 43100 nM
CCCCCCCCCCCCCCCCCCOC[C@@H](O)COP(=O)(O)C(=O)O [B-PFA, 1-O-octadecyl-sn-glycero-3-PFA] | (0.7) | (0.8) | 0.63 (0.8) | (2.2) | (>17.2) | 0.85 (2.4) | 2290 nM | 1930 ± 540 nM | 1250 nM | 1470 ± 630 nM | 1470 nM | 2720 nM | 3870 ± 2360 nM | 9310 nM | 2600 ± 1500 nM | 20700 nM | 1.20 (11.9) | > 30000 nM | (>17.2) | > 30000 nM | EC50 [3]: 6200 nM
Cc1cn([C@H]2C[C@H](N=[N+]=[N-])[C@@H](CO)O2)c(=O)[nH]c1=O [AZT, 3′-Azido-3′-deoxythymidine] | – | – | – | – | – | – | – | – | – | – | – | – | – | – | – | – | – | – | – | – | EC50 ([1]; Human immunodeficiency virus 1, MT2, Table 8, 4XAZT, read-out: AZT EC50): 290 ± 114 nM; Fold resistance ([1]; Table 8, 4XAZT relative to wild type virus): 7.3
CCCCCCCCCCCCCCCCCCOC[C@H](COP(=O)(O)C(=O)O)OCC [EB-PFA, 1-O-octadecyl-2-O-ethyl-sn-glycero-3-PFA] | (0.7) | (0.5) | 0.24 (0.5) | (1.4) | – | 0.54 (2.6) | 580 nM | 1360 ± 930 nM | 330 nM | 340 ± 240 nM | 340 nM | 800 nM | 880 ± 140 nM | 730 nM | 200 ± 200 nM | 2390 nM | 0.15 (2.7) | > 26100 nM | (>29.0) | 5210 nM | EC50 [3]: 2020 nM
CCCCCCCCCCCCCCCCCCOC[C@H](COP(=O)(O)C(=O)O)OC [MB-PFA, 1-O-octadecyl-2-O-methyl-sn-glycero-3-PFA] | (1.7) | (1.2) | 0.22 (1.2) | (1.2) | 0.12 (9.4) | 0.14 (2.7) | 480 nM | 1510 ± 450 nM | 460 nM | 580 ± 220 nM | 580 nM | – | 600 ± 380 nM | 1160 nM | 2300 ± 1900 nM | 2490 nM | 0.12 (3.2) | > 30000 nM | (>39.0) | 7210 nM | –
